Experimental data taken from publication PMC4063695, “Design of Embedded-Hybrid Antimicrobial Peptides with Enhanced Cell Selectivity and Anti-Biofilm Activity” (PLoS ONE, 2014).
No end group written: not given here.

Experiments:
[1] = tested on: E. coli ATCC25922; experiment: MIC in the presence of physiological salts; format: cell-based, Escherichia coli; design: unit not given here
Excerpt: (§1) E. coli ATCC25922, P. aeruginosa ATCC27853, S. aureus ATCC29213, S. epidermidis ATCC12228, S. faecalis ATCC29212 and B. subtilis CMCC63501 were obtained from the College of Veterinary Medicine, Northeast Agricultural University (Harbin, China), E. coli K88, E. coli CVCC1515 and P. aeruginosa ATCC15442 were bestowed by Prof. J.H. Wang (Gene Engineering Laboratory, Feed Research Institute, Chinese Academy of Agricultural Sciences Beijing, China) and E. coli UB1005 was kindly provided by Prof. Q.S. Qi (State Key Laboratory of Microbial Technology, Shandong University, China). […] Briefly, 50 µl of approximate 0.5–1 × 10^6 colony forming units (CFU)/ml of cells were diluted in Mueller-Hinton broth and distributed to 96-well plate, 50 µl of twofold peptides were added and the plates was incubated at 37°C for 18–24 h. The MIC values were calculated as the lowest peptide concentration that prevented visible turbidity and negative control of the pure broth without microbes. The tests were performed at least three times in duplicate.
(§2) The stability of peptides was tested in the MIC assay in different environments, including salt sensitivity, human serum, thermal stability and susceptibility to enzymes. For salt sensitivity, 0.5–1 × 10^6 CFU/ml of P. aeruginosa ATCC27853 and E. coli ATCC25922 were treated with peptides, while different salts were added to MHB, and the final concentrations of physiological salts were as follows: 150 mM NaCl, 4.5 mM KCl, 1 mM MgCl2, 6 µM NH4Cl, 8 µM ZnCl2, 4 µM FeCl3 and […] [33]. Except salt sensitivity, only E. coli ATCC25922 was treated with peptides. […] For testing peptide sensitivity to the proteolytic enzymes, the peptides were incubated in advance at 37°C for 1 h with a 1 mg/ml final concentration of the proteolytic enzymes (trypsin, pepsin, papain and proteinase K). For testing thermal stability, incubation occurred at 100°C for 1 h. After these treatments, the procedures were same as MIC assay described above.

[2] = tested on: P. aeruginosa ATCC27853; experiment: MIC in the presence of physiological salts; format: cell-based, Pseudomonas aeruginosa; design: unit not given here
Excerpt: as §1, §2

[3] = tested on: E. coli UB1005; experiment: Cytoplasmic membrane electrical potential, diSC3-5; format: cell-based, Escherichia coli; details: diSC3-5 release over 600 s
Method: Peptides could alter the electrical potential of cytoplasmic membrane, and this potential that was measured by using E. coli UB1005 cells and diSC3-5 (Sigma), a membrane potential-sensitive fluorescent dye, as previously described, [35]. E. coli UB1005 was cultured to logarithmic phase in MHB, harvested by centrifugation, washed twice with buffer (5 mM of HEPES and 20 mM of glucose, pH 7.4) and resuspended to an OD600 of 0.05 in the identical buffer. The dye (diSC3-5) was added to above buffer at a final concentration of 0.4 µM. And the bacteria were incubated to take up the dye for 90 min. KCl was added to a final concentration of 0.1 M for equilibrating K^+ concentration between extracellular and intracellular environment, and then the bacteria were incubated at room temperature for 10 min. The cell suspension (2 ml) was placed in a 1-cm cuvette, and the peptides were added to different concentrations. The fluorescence intensity changes were monitored by using an F-4500 fluorescence spectrophotometer (Hitachi, Japan) with an excitation wavelength of 622 nm and an emission wavelength of 670 nm.

[4] = Circular dichroism, secondary structure; format: physicochemical; details: 150 µM peptide, 25°C, from [θ]222
Method: The CD spectra were measured with a CD spectropolarimeter (Jasco, J-820, Tokyo, Japan) at 25°C, using a 0.1 cm path length rectangular quartz cell. The spectra were recorded at between 190 and 250 nm at 10 nm/min scanning speed. At least three scans were conducted for each peptide sample.
The acquired CD spectra were converted to the mean residue ellipticity through the following equation: [drawing 1]
where θM is the mean residue ellipticity [deg.cm2.dmol-1], θobs is the observed ellipticity corrected for the buffer at a given wavelength [mdeg], c is the peptide concentration [mM], l is the path length [mm], and n is the number of amino acids.
The percentage of α-helical structure was calculated as followings: [drawing 2]
where [θ]222 is the experimentally observed mean residue ellipticity at 222 nm, and values for [θ]^0 and [θ]^100 which correspond to 0 and 100% a-helix content at 222 nm, are estimated to be −2000 and −32000, respectively, [29].

[5] = tested on: E. coli ATCC25922; experiment: MIC after treatment with serum, enzymes and heat; format: cell-based, Escherichia coli
Excerpt: as §1, §2

[6] = tested on: E. coli ATCC25922; experiment: Kinetics of bacterial killing; format: cell-based, Escherichia coli; details: 1× MIC, within 30 min, 37°C, PBS; mean of three repeats
Method: Kinetics of the bacterial killing was measured by using E. coli ATCC25922 in logarithmic phase (10^8 CFU/mL). The above bacteria were diluted to 1/1000 with PBS, and 500 µL solutions was added with 500 µL PBS at different final concentrations (1/4, 1/2 and 1 × MIC). The solutions were incubated for 0.5 min, 1 min, 2.5 min, 5 min, 10 min, 20 min, and 40 min at 37°C. The moderately diluted samples were plated on nutrient agar plate (MHA). The bacterial colonies were counted after incubation for 18 h at 37°C. The results were determined and presented as the mean of three repeats.

[7] = tested on: E. coli UB1005; details: E. coli UB1005; MHB, 37°C, 18-24 h; at least three times in duplicate
Excerpt: as §1

[8] = tested on: Gram-negative and Gram-positive strains; experiment: MIC over all tested strains (range, geometric mean); format: cell-based; design: GM (geometric mean of MIC values from all microbial strains): unit not given here; details: all strains of Table 2
Excerpt: as §1

[9] = all kinds of salts in physiological concentrations

Which “MIC, FeCl3” value ([1]; 4 µM FeCl3 in MHB) does the source give for RFRRLFRIRVRVLKKI-NH2 [R-FV-I16] here?
The value was 1.

And the “MIC, NH4Cl” value ([1]; 6 µM NH4Cl in MHB)?
The value was 1.

And the “MIC, ZnCl2” value ([1]; 8 µM ZnCl2 in MHB)?
The value was 1.

And the “MIC, MgCl2” value ([1]; 1 mM MgCl2 in MHB)?
Its value is 4.

What about the “MIC, KCl” value ([1]; 4.5 mM KCl in MHB) of the same substance?
The value was 1.

And the “MIC, NaCl” value ([1]; 150 mM NaCl in MHB)?
Its value is 4.

And the “MIC, Mix” value [1, 9]?
The value was 8.

And the “MIC, CaCl2” value ([1]; in MHB)?
Its value is 1.

And the “MIC, Control” value ([1]; no added salts, unit not given)?
Its value is 1.

And the “MIC, CaCl2” value ([2]; 2.5 µM CaCl2 in MHB)?
Its value is 4.

What about the “MIC, FeCl3” value ([2]; 4 µM FeCl3 in MHB) of the same substance?
The value was 4.

What about the “MIC, NH4Cl” value ([2]; 6 µM NH4Cl in MHB) of the same substance?
Its value is 4.

What about the “MIC, ZnCl2” value ([2]; 8 µM ZnCl2 in MHB) of the same substance?
Its value is 4.

And the “MIC, MgCl2” value ([2]; 1 mM MgCl2 in MHB)?
The value was 8.

And the “MIC, KCl” value ([2]; 4.5 mM KCl in MHB)?
Its value is 4.

And the “MIC, NaCl” value ([2]; 150 mM NaCl in MHB)?
Its value is 4.

What about the “MIC, Mix” value [2, 9] of the same substance?
The value was 16.

And the “MIC, Control” value ([2]; no added salts, unit not given)?
Its value is 4.

And the “cytoplasmic membrane depolarization (in words)” value [3]?
The value was “able to permeabilize the bacterial cell membrane even at a lower concentration than their MICs”.

What about the α-helical content ([4]; 30 mM SDS) of the same substance?
Its α-helical content is 36%.

What about the α-helical content ([4]; 50% TFE) of the same substance?
The α-helical content was 69%.

And the “MIC, Serum 25%” value ([5]; E. coli ATCC25922, 25% human serum in MHB)?
Its value is 4.

What about the “MIC, Serum 50%” value ([5]; E. coli ATCC25922, 50% human serum in MHB) of the same substance?
Its value is 16.

What about the “MIC, Heat 100°C” value ([5]; E. coli ATCC25922, peptide incubated at 100°C for 1 h) of the same substance?
The value was 1.

What about the “MIC, Enzymes Caroid” value ([5]; E. coli ATCC25922, peptide pre-incubated 1 h at 37°C with 1 mg/ml enzyme (method names papain)) of the same substance?
The value was 8.

And the “MIC, Enzymes Pepsin” value ([5]; E. coli ATCC25922, peptide pre-incubated 1 h at 37°C with 1 mg/ml pepsin)?
Its value is 8.

What about the “MIC, Enzymes Proteinase K” value ([5]; E. coli ATCC25922, peptide pre-incubated 1 h at 37°C with 1 mg/ml proteinase K) of the same substance?
The value was >128.

And the “MIC, Enzymes Trypsin” value ([5]; E. coli ATCC25922, peptide pre-incubated 1 h at 37°C with 1 mg/ml trypsin)?
Its value is 4.

What about the “antimicrobial activity after heat (in words)” value ([5]; E. coli, incubation at 100°C for approximately 1 h) of the same substance?
Its value is “remained stable”.

And the “reduction of colony count” value [6]?
Its value is 99%.

What about the MIC [7] of the same substance?
Its MIC is 4 µM.

And the “GM (geometric mean of MIC values from all microbial strains)” value [8]?
Its value is 2.
